{"source": "patent US8846633B2", "about": "“Method for inhibiting cancer stem cell like properties and chemoradioresistant properties of cancer or tumor cells with microRNA145” (Taipei Veterans General Hospital, priority 2011, dated 2014)", "key": {"ALDH1+CD44+ HNC cells [1]": {"system": "ALDH1+CD44+ HNC cells", "assay": "HNC-TIC orthotopic xenograft, survival", "type": "in vivo, nude mice", "details": "monitored up to 12 weeks", "method": "(§1) We further explored the therapeutic potential of miR145 in immunocompromised mice bearing HNC-TIC xenografted tumors. Nude mice that were orthotopically pre-injected with GFP-labeled ALDH1^+CD44^+ cells in the neck region were treated with miR145-overexpressing lentivirus (pLV-miR-145) and shSOX9+shADAM17 by intra-tumoral lesion injection. […] By monitoring the treated mice for up to 12 weeks, we observed that administration of pLV-miR145 or shSOX9+shADAM17 prolonged animal survival to a greater extent than did the LNA-miR145 treatment (FIG. 10B)."}, "ALDH1+CD44+ HNC cells [2]": {"system": "ALDH1+CD44+ HNC cells", "assay": "HNC-TIC orthotopic xenograft, tumor size", "type": "in vivo, nude mice", "details": "intra-tumoral lesion injection; five weeks after treatment; vs pLV or shLuc", "method": "as §1"}, "ALDH1+CD44+ HNC cells [3]": {"system": "ALDH1+CD44+ HNC cells", "assay": "tumor initiation of transfected ALDH1+CD44+ HNC cells", "type": "in vivo", "details": "ALDH1+CD44+ cells-transplanted grafts in NOD-SCID mice"}, "HNC cells [4]": {"system": "HNC cells", "assay": "sphere formation of HNC cells", "type": "cell-based, human", "details": "ALDH1+CD44+ cells; data not shown", "from_the_text": "(§2) To identified the miRNA(s) involved in the regulation of TIC properties in HNC-TICs, we evaluated and compared the miRNA expression profiles in 3 pairs of HNC populations (ALDH1^+ vs. ALDH1^−, CD44^+ vs. CD44^−, and sphere-forming vs. parental) derived from patient specimens. […] To further investigate whether miR145 plays a role in the identity of HNC-TICs, two patient sample-derived HNC cell lines (HNC-1 and HNC-2) and an immortalized HNC cell line (FaDu) were subjected to quantitative RT-PCR analysis to confirm that miR145 levels were low in ALDH1^+/CD44^+ and sphere-forming HNC cells but high in ALDH1^−/CD44^− and parental cells (FIG. 8A, left and middle). To evaluate the role of miR145 on cancer initiation, we knocked down miR145 in ALDH1^−CD44^− cells derived from HNC-1, HNC-2, and FaDu cells using an miRNA SPONGE strategy (FIG. 8A, right), and subjected these cells to functional and molecular analysis. As shown in FIGS. 8B-D, the sphere formation ability and the percentage of ALDH1^+ and CD44^+ cells was all elevated upon miR145 knockdown (Spg-miR145) as compared to the control (Spg-ctrl) cells. […]"}, "HNC cells [5]": {"system": "HNC cells", "assay": "invasion of HNC cells", "type": "cell-based, human", "details": "ALDH1+CD44+ cells; data not shown", "from_the_text": "as §2"}, "HNC cells [6]": {"system": "HNC cells", "assay": "percentage of ALDH1+ and CD44+ HNC cells", "type": "cell-based, human", "details": "data not shown", "from_the_text": "as §2"}}, "data": [{"substance": "shSOX9+shADAM17: lentiviral-based shRNAs for co-knockdown of SOX9 (SEQ ID NO: 28) and ADAM17 (SEQ ID NO: 29) (chain 1 GCGGAGGAAGTCGGTGAAGAA; chain 2 CCTATGTCGATGCTGAACAAA; the letters are possibly those of the target site)", "values": [{"measurement": "animal survival", "setting": "ALDH1+CD44+ HNC cells [1]", "result": "prolonged"}, {"measurement": "tumor size", "setting": "ALDH1+CD44+ HNC cells [2]", "result": "dramatically reduced"}, {"measurement": "tumor-initiating property", "setting": "ALDH1+CD44+ HNC cells [3]", "result": "effectively inhibited"}, {"measurement": "sphere-forming ability", "setting": "HNC cells [4]", "result": "reduction"}, {"measurement": "invasive capacity", "setting": "HNC cells [5]", "result": "reduced"}, {"measurement": "percentages of CD44+ and ALDH1+ cells", "setting": "HNC cells [6]", "result": "reduced"}]}]}
